The target of the assay is T1, Recombinant human TPH1 (MBP tagged) (Homo sapiens, UniProt P17752).
T1 construct: cloning full length human TPH1 cDNA in to a bacterial pMAL-c5E expression vector; made in house; host or cells: E. coli BL21 (DE3)
T1 sequence (P17752 1-444): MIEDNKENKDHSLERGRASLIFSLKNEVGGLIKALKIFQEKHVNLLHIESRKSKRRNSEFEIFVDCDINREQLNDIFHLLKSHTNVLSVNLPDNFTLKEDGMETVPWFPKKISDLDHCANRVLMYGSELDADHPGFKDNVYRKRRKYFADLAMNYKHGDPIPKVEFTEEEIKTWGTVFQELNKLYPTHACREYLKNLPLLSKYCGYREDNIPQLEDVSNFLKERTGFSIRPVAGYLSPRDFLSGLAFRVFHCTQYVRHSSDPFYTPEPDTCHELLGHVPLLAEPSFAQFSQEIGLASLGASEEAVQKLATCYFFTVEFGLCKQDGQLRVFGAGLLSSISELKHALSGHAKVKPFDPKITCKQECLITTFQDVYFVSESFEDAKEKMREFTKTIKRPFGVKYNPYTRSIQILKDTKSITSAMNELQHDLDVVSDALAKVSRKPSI
The experiment in a line: TPH1 in vitro inhibition assay (kinetic fluorescence). The class given is biochemical. The conditions noted are these: read-out: TPH1 Range (TPH1 inhibition IC50). In outline: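 Final mix: 15 nM MBP-TPH1, 30 μM Trp, 36 μM 6-methyltetrahydropterin, 25 μM ferrous ammonium sulfate, 50 mM MES pH 7.1, 1% DMSO, room temperature.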

The structures appear in SMILES notation. pIC50: −log10 of the molar value. A value given as a limit tells only on which side of the number the result lay.

For `CCCOc1ccc(-c2ccc([C@@H](Oc3cc(N4CCC5(CC4)CN[C@H](C(=O)O)C5)nc(N)n3)C(F)(F)F)c(-n3ccc(C)n3)c2)cc1F` [Example 1bz, (S)-8-(2-amino-6-((R)-2,2,2-trifluoro-1-(3′-fluoro-3-(3-methyl-1H-pyrazol-1-yl)-4′-propoxy-[1,1′-biphenyl]-4-yl)ethoxy)pyrimidin-4-yl)-2,8-diazaspiro[4.5]decane-3-carboxylic acid], the pIC50 is over 7.30.
On to `CCCCOc1ccc(-c2ccc([C@@H](Oc3cc(N4CCC5(CC4)CN[C@H](C(=O)O)C5)nc(N)n3)C(F)(F)F)c(-n3ccc(C)n3)c2)cc1F` [Example 1ca, (S)-8-(2-amino-6-((R)-1-(4′-butoxy-3′-fluoro-3-(3-methyl-1H-pyrazol-1-yl)-[1,1′-biphenyl]-4-yl)-2,2,2-trifluoroethoxy)pyrimidin-4-yl)-2,8-diazaspiro[4.5]decane-3-carboxylic acid], for which the pIC50 is over 7.30.
In the case of `Cc1ccn(-c2cc(-c3ccc(-c4nnc(C)o4)c(F)c3)ccc2[C@@H](Oc2cc(N3CCC4(CC3)CN[C@H](C(=O)O)C4)nc(N)n2)C(F)(F)F)n1` [Example 1cb, (S)-8-(2-amino-6-((R)-2,2,2-trifluoro-1-(3′-fluoro-4′-(5-methyl-1,3,4-oxadiazol-2-yl)-3-(3-methyl-1H-pyrazol-1-yl)-[1,1′-biphenyl]-4-yl)ethoxy)pyrimidin-4-yl)-2,8-diazaspiro[4.5]decane-3-carboxylic acid], the pIC50 is over 7.30.
Turning to `Cc1ccn(-c2cc(-c3ccc(S(C)(=O)=O)cc3)ccc2[C@@H](Oc2cc(N3CCC4(CC3)CN[C@H](C(=O)O)C4)nc(N)n2)C(F)(F)F)n1` [Example 1cc, (S)-8-(2-amino-6-((R)-2,2,2-trifluoro-1-(3-(3-methyl-1H-pyrazol-1-yl)-4′-(methylsulfonyl)-[1,1′-biphenyl]-4-yl)ethoxy)pyrimidin-4-yl)-2,8-diazaspiro[4.5]decane-3-carboxylic acid], the pIC50 is over 7.30.
As for `CCCOc1ccc(-c2ccc([C@@H](Oc3cc(N4CCC5(CC4)CN[C@H](C(=O)O)C5)nc(N)n3)C(F)(F)F)c(-n3ccc(C)n3)c2)cc1` [Example 1cd, (S)-8-(2-amino-6-((R)-2,2,2-trifluoro-1-(3-(3-methyl-1H-pyrazol-1-yl)-4′-propoxy-[1,1′-biphenyl]-4-yl)ethoxy)pyrimidin-4-yl)-2,8-diazaspiro[4.5]decane-3-carboxylic acid], the figure is over 7.30.
Then `Cc1ccn(-c2cc(-c3ccc(C(=O)NCCN4CCOCC4)cc3)ccc2[C@@H](Oc2cc(N3CCC4(CC3)CN[C@H](C(=O)O)C4)nc(N)n2)C(F)(F)F)n1` [Example 1ce, (S)-8-(2-amino-6-((R)-2,2,2-trifluoro-1-(3-(3-methyl-1H-pyrazol-1-yl)-4′-((2-morpholinoethyl)carbamoyl)-[1,1′-biphenyl]-4-yl)ethoxy)pyrimidin-4-yl)-2,8-diazaspiro[4.5]decane-3-carboxylic acid], with over 7.30.
With `Cc1ccn(-c2cc(-c3ccc(S(N)(=O)=O)cc3)ccc2[C@@H](Oc2cc(N3CCC4(CC3)CN[C@H](C(=O)O)C4)nc(N)n2)C(F)(F)F)n1` [Example 1cf, (S)-8-(2-amino-6-((R)-2,2,2-trifluoro-1-(3-(3-methyl-1H-pyrazol-1-yl)-4′-sulfamoyl-[1,1′-biphenyl]-4-yl)ethoxy)pyrimidin-4-yl)-2,8-diazaspiro[4.5]decane-3-carboxylic acid], the negative-log IC50 (pIC50) is 6.52 to 7.30.
For `Cc1ccn(-c2cc(-c3ccc(C(N)=O)cc3)ccc2[C@@H](Oc2cc(N3CCC4(CC3)CN[C@H](C(=O)O)C4)nc(N)n2)C(F)(F)F)n1` [Example 1cg, (S)-8-(2-amino-6-((R)-1-(4′-carbamoyl-3-(3-methyl-1H-pyrazol-1-yl)-[1,1′-biphenyl]-4-yl)-2,2,2-trifluoroethoxy)pyrimidin-4-yl)-2,8-diazaspiro[4.5]decane-3-carboxylic acid], the negative logarithm of the IC50 (pIC50) was over 7.30.
As for `CNC(=O)c1ccc(-c2ccc([C@@H](Oc3cc(N4CCC5(CC4)CN[C@H](C(=O)O)C5)nc(N)n3)C(F)(F)F)c(-n3ccc(C)n3)c2)cc1` [Example 1ch, (S)-8-(2-amino-6-((R)-2,2,2-trifluoro-1-(3-(3-methyl-1H-pyrazol-1-yl)-4′-(methylcarbamoyl)-[1,1′-biphenyl]-4-yl)ethoxy)pyrimidin-4-yl)-2,8-diazaspiro[4.5]decane-3-carboxylic acid], the figure is 6.52 to 7.30.
As for `COc1ccc(-c2ccc([C@@H](Oc3cc(N4CCC5(CC4)CN[C@H](C(=O)O)C5)nc(N)n3)C(F)(F)F)c(-n3ccc(C)n3)c2)cc1F` [Example 1ci, (S)-8-(2-amino-6-((R)-2,2,2-trifluoro-1-(3′-fluoro-4′-methoxy-3-(3-methyl-1H-pyrazol-1-yl)-[1,1′-biphenyl]-4-yl)ethoxy)pyrimidin-4-yl)-2,8-diazaspiro[4.5]decane-3-carboxylic acid], the figure is over 7.30; as for `Cc1ccn(-c2cc(-c3ccc(C(=O)N4CCNCC4)cc3)ccc2[C@@H](Oc2cc(N3CCC4(CC3)CN[C@H](C(=O)O)C4)nc(N)n2)C(F)(F)F)n1` [Example 1cj, (S)-8-(2-amino-6-((R)-2,2,2-trifluoro-1-(3-(3-methyl-1H-pyrazol-1-yl)-4′-(piperazine-1-carbonyl)-[1,1′-biphenyl]-4-yl)ethoxy)pyrimidin-4-yl)-2,8-diazaspiro[4.5]decane-3-carboxylic acid], over 7.30.
As for `Cc1ccn(-c2cc(-c3ccc(C(=O)N(C)C)cc3)ccc2[C@@H](Oc2cc(N3CCC4(CC3)CN[C@H](C(=O)O)C4)nc(N)n2)C(F)(F)F)n1` [Example 1ck, (S)-8-(2-amino-6-((R)-1-(4′-(dimethylcarbamoyl)-3-(3-methyl-1H-pyrazol-l-y)-[1,1′-biphenyl]-4-yl)-2,2,2-trifluoroethoxy)pyrimidin-4-yl)-2,8-diazaspiro[4.5]decane-3-carboxylic acid], the negative logarithm of the IC50 (pIC50) was over 7.30.
For `Cc1ccn(-c2cc(-c3ccc(OCC(C)C)cc3)ccc2[C@@H](Oc2cc(N3CCC4(CC3)CN[C@H](C(=O)O)C4)nc(N)n2)C(F)(F)F)n1` [Example 1cl, (S)-8-(2-amino-6-((R)-2,2,2-trifluoro-1-(4′-isobutoxy-3-(3-methyl-1H-pyrazol-1-yl)-[1,1′-biphenyl]-4-yl)ethoxy)pyrimidin-4-yl)-2,8-diazaspiro[4.5]decane-3-carboxylic acid], the pIC50 is over 7.30.
With `CCN(CC)C(=O)c1ccc(-c2ccc([C@@H](Oc3cc(N4CCC5(CC4)CN[C@H](C(=O)O)C5)nc(N)n3)C(F)(F)F)c(-n3ccc(C)n3)c2)cc1` [Example 1cm, (S)-8-(2-amino-6-((R)-1-(4′-(diethylcarbamoyl)-3-(3-methyl-1H-pyrazol-1-yl)-[l,l′-biphenyl]-4-yl)-2,2,2-trifluoroethoxy)pyrimidin-4-yl)-2,8-diazaspiro[4.5]decane-3-carboxylic acid], the pIC50 is over 7.30.
As for `Cc1ccn(-c2cc(-c3ccc(OCC(C)(C)C)cc3)ccc2[C@@H](Oc2cc(N3CCC4(CC3)CN[C@H](C(=O)O)C4)nc(N)n2)C(F)(F)F)n1` [Example 1cn, (S)-8-(2-amino-6-((R)-2,2,2-trifluoro-1-(3-(3-methyl-1H-pyrazol-1-yl)-4′-(neopentyloxy)-[1,1′-biphenyl]-4-yl)ethoxy)pyrimidin-4-yl)-2,8-diazaspiro[4.5]decane-3-carboxylic acid], the pIC50 is over 7.30.
Then `Cc1ccn(-c2cc(-c3ccc4c(c3)CCCO4)ccc2[C@@H](Oc2cc(N3CCC4(CC3)CN[C@H](C(=O)O)C4)nc(N)n2)C(F)(F)F)n1` [Example 1co, (S)-8-(2-amino-6-((R)-1-(4-(chroman-6-yl)-2-(3-methyl-1H-pyrazol-1-yl)phenyl)-2,2,2-trifluoroethoxy)pyrimidin-4-yl)-2,8-diazaspiro[4.5]decane-3-carboxylic acid], with over 7.30; and `Cc1ccn(-c2cc(-c3ccc(C)c(CO)c3)ccc2[C@@H](Oc2cc(N3CCC4(CC3)CN[C@H](C(=O)O)C4)nc(N)n2)C(F)(F)F)n1` [Example 1cq, (S)-8-(2-amino-6-((R)-2,2,2-trifluoro-1-(3′-(hydroxymethyl)-4′-methyl-3-(3-methyl-1H-pyrazol-1-yl)-[1,1′-biphenyl]-4-yl)ethoxy)pyrimidin-4-yl)-2,8-diazaspiro[4.5]decane-3-carboxylic acid], with over 7.30.
On to `Cc1ccn(-c2cc(-c3ccc(CO)c(C)c3)ccc2[C@@H](Oc2cc(N3CCC4(CC3)CN[C@H](C(=O)O)C4)nc(N)n2)C(F)(F)F)n1` [Example 1cr, (S)-8-(2-amino-6-((R)-2,2,2-trifluoro-1-(4′-(hydroxymethyl)-3′-methyl-3-(3-methyl-1H-pyrazol-1-yl)-[1,1′-biphenyl]-4-yl)ethoxy)pyrimidin-4-yl)-2,8-diazaspiro[4.5]decane-3-carboxylic acid], for which the pIC50 was over 7.30.
As for `CCOc1ccc(-c2ccc([C@@H](Oc3cc(N4CCC5(CC4)CN[C@H](C(=O)O)C5)nc(N)n3)C(F)(F)F)c(-n3ccc(C)n3)c2)cn1` [Example 1cs, (S)-8-(2-amino-6-((R)-1-(4-(6-ethoxypyridin-3-yl)-2-(3-methyl-1H-pyrazol-1-yl)phenyl)-2,2,2-trifluoroethoxy)pyrimidin-4-yl)-2,8-diazaspiro[4.5]decane-3-carboxylic acid], the figure is over 7.30.

The values above are taken from patent publication US11759462B2, “Spirocyclic compounds as tryptophan hydroxylase inhibitors” (priority 2013, dated 2023).
